Test results: the NIST ThermoML archive (doi:10.1016/j.jct.2005.06.013)
Numbers after ± are expanded uncertainties.

Conditions: 298.15 K; 101.33 kPa; Crystal; mass and volume measurments

Structure (SMILES): Oc1cccnc1O [2,3-dihydroxypyridine]
- mass density: 1130 ± 20 kg/m3
